Assay results from patent publication US9809573B2, “Substituted pyridine derivatives useful as GSK-3 inhibitors” (priority 2013, dated 2017).
Like-named read-outs stand apart in the source and are kept apart here.

Assays:
pTau = pTau assay (method not described); assay type: cell-based
GSK3β = GSK3β (Homo sapiens, UniProt P49841); experiment: GSK3β kinase assay (Caliper LabChip3000, fluoresceinated peptide substrate); assay type: biochemical
Procedure, shortened: (§1)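 Eleven-point compound titrations (10 mM DMSO stocks) incubated with kinase and fluorescent peptide for 20 h at room temperature before EDTA quench. Substrate-to-product conversion measured by microfluidic mobility shift; IC50 from non-linear fitting.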

GSK3α = GSK3α (Homo sapiens, UniProt P49840); experiment: biochemical
Procedure, shortened: as §1

[1] = first value of the cell, 250 pM enzyme, 20 uM ATP, 20 hours at room temperature, read-out: GSK3β/α (nM): GSK3β IC50
[2] = second value of the cell, 250 pM enzyme, 20 uM ATP, 20 hours at room temperature, read-out: GSK3β/α (nM): GSK3α IC50

Sequence of GSK3α (P49840 whole entry, species assumed): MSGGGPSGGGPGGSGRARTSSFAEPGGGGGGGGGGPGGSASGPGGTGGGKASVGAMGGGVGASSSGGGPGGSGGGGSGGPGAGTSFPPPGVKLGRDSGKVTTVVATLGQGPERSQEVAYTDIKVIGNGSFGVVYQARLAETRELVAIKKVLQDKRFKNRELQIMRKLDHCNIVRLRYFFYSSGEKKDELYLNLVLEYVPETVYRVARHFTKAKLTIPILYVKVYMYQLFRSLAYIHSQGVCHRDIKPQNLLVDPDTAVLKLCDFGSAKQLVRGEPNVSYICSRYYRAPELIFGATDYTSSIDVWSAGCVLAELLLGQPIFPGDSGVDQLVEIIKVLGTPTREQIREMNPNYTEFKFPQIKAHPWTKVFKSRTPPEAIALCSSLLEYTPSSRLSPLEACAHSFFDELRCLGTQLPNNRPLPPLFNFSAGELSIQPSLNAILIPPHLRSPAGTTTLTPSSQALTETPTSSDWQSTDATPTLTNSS
Sequence of GSK3β (P49841 whole entry, species assumed): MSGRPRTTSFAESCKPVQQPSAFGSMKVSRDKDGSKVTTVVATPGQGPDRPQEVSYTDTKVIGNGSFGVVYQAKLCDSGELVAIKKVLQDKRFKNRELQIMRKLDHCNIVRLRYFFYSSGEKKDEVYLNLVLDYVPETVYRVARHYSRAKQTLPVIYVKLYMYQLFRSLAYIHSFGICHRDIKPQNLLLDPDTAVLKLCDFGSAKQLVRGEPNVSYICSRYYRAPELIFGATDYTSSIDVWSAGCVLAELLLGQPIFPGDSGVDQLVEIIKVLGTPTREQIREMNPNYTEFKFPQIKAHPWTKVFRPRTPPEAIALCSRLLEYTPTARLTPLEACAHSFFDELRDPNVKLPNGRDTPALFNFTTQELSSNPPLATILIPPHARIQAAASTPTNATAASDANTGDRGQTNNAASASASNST

Row | Compound | IC50 (pTau; read-out: pTau) | IC50 (GSK3β; [1]) | IC50 (GSK3α; [2]) | IC50 (pTau; read-out: pTau (nM)) | IC50 (GSK3α) | IC50 (GSK3β)
1 | O=C(Nc1cncc(Cc2ccccc2)c1)c1ccnc(NC(=O)C2CC2)c1 [Example 110, N-(5-benzylpyridin-3-yl)-2-(cyclopropanecarboxamido)isonicotinamide] | 5600 nM | 73 nM | 11 nM |  |  | 
2 | O=C(Nc1cncc(-c2ccc(F)cc2)c1)c1ccnc(NC(=O)C2CC2)c1 [Example 111, 2-(cyclopropanecarboxamido)-N-(5-(4-fluorophenyl)pyridin-3-yl)isonicotinamide] | 570 nM |  | 0.95 nM |  |  | 6.4 nM
3 | O=C(Nc1cncc(C2CCC2)c1)c1ccnc(NC(=O)C2CC2)c1 [Example 113, N-(5-cyclobutylpyridin-3-yl)-2-(cyclopropanecarboxamido)isonicotinamide] | 330 nM |  | 1.75 nM |  |  | 1 nM
4 | O=C(Nc1cncc(-c2ccc(F)cc2F)c1)c1ccnc(NC(=O)C2CC2)c1 [Example 114, 2-(cyclopropanecarboxamido)-N-(5-(2,4-difluorophenyl)pyridin-3-yl)isonicotinamide] | 990 nM | 1.6 nM | 1.3 nM |  |  | 
5 | N#Cc1ccc(-c2cncc(NC(=O)c3ccnc(NC(=O)C4CC4)c3)c2)cc1 [Example 115, N-(5-(4-cyanophenyl)pyridin-3-yl)-2-(cyclopropanecarboxamido)isonicotinamide] | 780 nM | 4.1 nM | 4.3 nM |  |  | 
6 | O=C(Nc1cncc(-c2ccccc2F)c1)c1ccnc(NC(=O)C2CC2)c1 [Example 116, 2-(cyclopropanecarboxamido)-N-(5-(2-fluorophenyl)pyridin-3-yl)isonicotinamide] |  |  |  | 180 nM | 0.28 nM | 0.35 nM
7 | O=C(Nc1cncc(-c2ccc(OC(F)(F)F)cc2)c1)c1ccnc(NC(=O)C2CC2)c1 [Example 120, 2-(cyclopropanecarboxamido)-N-(5-(4-(trifluoromethoxy)phenyl)pyridin-3-yl)isonicotinamide] | 5400 nM | 11 nM | 8 nM |  |  | 
8 | COc1ccccc1-c1cncc(NC(=O)c2ccnc(NC(=O)C3CC3)c2)c1 [Example 123, 2-(cyclopropanecarboxamido)-N-(5-(2-methoxyphenyl)pyridin-3-yl)isonicotinamide] |  |  | 1.4 nM | 200 nM |  | 3.7 nM
9 | O=C(Nc1cncc(-c2cc(F)ccc2F)c1)c1ccnc(NC(=O)C2CC2)c1 [Example 142, 2-(cyclopropanecarboxamido)-N-(5-(2,5-difluorophenyl)pyridin-3-yl)isonicotinamide] |  |  |  | 100 nM | 0.76 nM | 1.5 nM
10 | CN(C)Cc1ccccc1-c1cncc(NC(=O)c2ccnc(NC(=O)C3CC3)c2)c1 [Example 145, 2-(cyclopropanecarboxamido)-N-(5-(2-((dimethylamino)methyl)phenyl)pyridin-3-yl)isonicotinamide] | 1400 nM | 780 nM | 170 nM |  |  | 
11 | O=C(Nc1cncc(-c2cccc3[nH]ccc23)c1)c1ccnc(NC(=O)C2CC2)c1 [Example 147, N-(5-(1H-indol-4-yl)pyridin-3-yl)-2-(cyclopropanecarboxamido)isonicotinamide] | 950 nM | 27 nM | 5.9 nM |  |  | 
12 | O=C(Nc1cncc(-c2cncc(Cl)c2)c1)c1ccnc(NC(=O)C2CC2)c1 [Example 160] | 150 nM |  | 1.6 nM |  |  | 3.9 nM
13 | Cc1ccc(-c2cncc(NC(=O)c3ccnc(NC(=O)C4CC4)c3)c2)cn1 [Example 162, 2-(cyclopropanecarboxamido)-N-(6′-methyl-[3,3′-bipyridin]-5-yl)isonicotinamide] | 115 nM |  | 1.1 nM |  |  | 2.5 nM

Further lines, with some results ahead:

Row | IC50 (pTau; read-out: pTau) | IC50 (GSK3β; [1]) | IC50 (GSK3α; [2]) | IC50 (pTau; read-out: pTau (nM)) | IC50 (GSK3α) | Compound | IC50 (GSK3β)
14 | 330 nM | 1.5 nM | 0.74 nM |  |  | O=C(Nc1cncc(-n2cccn2)c1)c1ccnc(NC(=O)C2CC2)c1 [Example 118, N-(5-(1H-pyrazol-1-yl)pyridin-3-yl)-2-(cyclopropanecarboxamido)isonicotinamide] | 
15 | 410 nM | 2.4 nM | 1 nM |  |  | O=C(Nc1cncc(-n2ccnc2)c1)c1ccnc(NC(=O)C2CC2)c1 [Example 119, N-(5-(1H-imidazol-1-yl)pyridin-3-yl)-2-(cyclopropanecarboxamido)isonicotinamide] | 
16 | 510 nM | 12 nM | 6.1 nM |  |  | O=C(Nc1cncc(-c2ccccc2C(F)(F)F)c1)c1ccnc(NC(=O)C2CC2)c1 [Example 124, 2-(cyclopropanecarboxamido)-N-(5-(2-(trifluoromethyl)phenyl)pyridin-3-yl)isonicotinamide] | 
17 | 620 nM | 9.7 nM | 2.4 nM |  |  | O=C(Nc1cncc(-c2ccc(Cl)cc2Cl)c1)c1ccnc(NC(=O)C2CC2)c1 [Example 148, 2-(cyclopropanecarboxamido)-N-(5-(2,4-dichlorophenyl)pyridin-3-yl)isonicotinami] | 
18 | 240 nM | 8.8 nM | 3.1 nM |  |  | Cn1ccc(-c2cncc(NC(=O)c3ccnc(NC(=O)C4CC4)c3)c2)c1 [Example 151, 2-(cyclopropanecarboxamido)-N-(5-(1-methyl-1H-pyrrol-3-yl)pyridin-3-yl)isonicotinamide] | 
19 | 770 nM | 9.1 nM | 3.3 nM |  |  | O=C(Nc1cncc(-c2cccc(Cl)c2)c1)c1ccnc(NC(=O)C2CC2)c1 [Example 155, N-(5-(3-chlorophenyl)pyridin-3-yl)-2-(cyclopropanecarboxamido)isonicotinamide] | 
20 | 420 nM | 11 nM | 3.6 nM |  |  | O=C(Nc1cncc(-c2cccc(N3CCOCC3)c2)c1)c1ccnc(NC(=O)C2CC2)c1 [Example 156, 2-(cyclopropanecarboxamido)-N-(5-(3-morpholinophenyl)pyridin-3-yl)isonicotinamide] | 
21 | 670 nM | 7.9 nM | 3.3 nM |  |  | O=C(Nc1cncc(-c2cccc(OC(F)F)c2)c1)c1ccnc(NC(=O)C2CC2)c1 [Example 157, 2-(cyclopropanecarboxamido)-N-(5-(3-(difluoromethoxy)phenyl)pyridin-3-yl)isonicotinamide] | 
22 | 425 nM | 7.7 nM | 2.5 nM |  |  | CCOc1cccc(-c2cncc(NC(=O)c3ccnc(NC(=O)C4CC4)c3)c2)c1Cl [Example 158, N-(5-(2-chloro-3-ethoxyphenyl)pyridin-3-yl)-2-(cyclopropanecarboxamido)isonicotinamide] | 
23 | 175 nM | 1.7 nM | 0.6 nM |  |  | O=C(Nc1cncc(-c2cncc(F)c2)c1)c1ccnc(NC(=O)C2CC2)c1 [Example 161, 2-(cyclopropanecarboxamido)-N-(5′-fluoro-[3,3′-bipyridin]-5-yl)isonicotinamide] | 
24 | 130 nM | 6 nM | 1.7 nM |  |  | O=C(Nc1cncc(-c2ccc(F)nc2)c1)c1ccnc(NC(=O)C2CC2)c1 [Example 163, 2-(cyclopropanecarboxamido)-N-(6′-fluoro-[3,3′-bipyridin]-5-yl)isonicotinamide] | 
25 | 270 nM | 6 nM | 1.4 nM |  |  | COc1cccc(-c2cncc(NC(=O)c3ccnc(NC(=O)C4CC4)c3)c2)n1 [Example 164, 2-(cyclopropanecarboxamido)-N-(6-methoxy-[2,3′-bipyridin]-5′-yl)isonicotinamide] | 
